In US11446262B2, “Neuroquiescence—a treatment for neurodevelopmental and neurodegenerative bioelectrical dysregulation and demyelination” (priority 2018, dated 2022):
Entries after “also recorded” stand apart in the source; their conditions may differ.

Experiments:
[1] = system: children with Epilepsy (seizures, neuronal agitation noise on EEG); test: Neuroquiescence protocol (Dobutamine preparation plus sustained sedation) in children with Epilepsy, hospital case series; type: in vivo, human
[2] = system: patients with seizures (Epilepsy); test: Use of Dobutamine in seizure patients before the sedation session (adults); type: in vivo, human
From the text: We alternate weeks between the Neurokinin-2 (Nk2) versus the Dobutamine Infusion (Dob). We are limited to four doses of Neurokinin 2, so we distribute them among the Dobutamine doses to maximize the Neurokinin-2 counterinflammation. We use no Dobutamine on the day before or after the day of Neurokinin-2.
The traditional “intractable” Epilepsy concept is overcome by use of Dobutamine, which is about cerebrovascular bloodflow, not about suppression of seizures. Dobutamine outperforms antiseizure medications because it addresses the true root-cause of seizures.

[3] = system: children with seizures and agitated bioelectrical brain activity; parameters: species or system human; details: in vivo
[4] = system: seizure and Grand mal seizure; test: Midazolam IV for termination of seizure; type: in vivo, human; details: IV 0.2 mg/kg (Maximum 10 mg)
[5] = Absorption of Midazolam administered by IV
[6] = system: patients (allergic reaction); test: Anesthesia allergy test before the Neuroquiescence session

Question: Which “children having no neuronal agitation noise, never returns” value ([1]; after week-six Neuroquiescence sedation session, Dobutamine continued) does the source give for `CC(CCc1ccc(O)cc1)NCCc1ccc(O)c(O)c1` (stereo not drawn) [Dobutamine] here?
Answer: The value was “over 95%”.

Question: What about the “children with no seizures but neuronal agitation noise still present” value ([1]; weeks two through five, Pre-Neuroquiescence preparation on Dobutamine, no antiseizure medication) of the same compound?
Answer: Its value is “about 80%”.

Question: And the “seizure status of adults previously taking multiple antiseizure medications” value ([2]; intravenous Dobutamine, before sedation session)?
Answer: The value was “become seizure free”.

Question: And the “performance versus antiseizure medication” value ([2]; neuronal agitation still present during weeks of microvascular preparation)?
Answer: Its value is “consistently outperformed their antiseizure medication”.

Question: What about the time to seizure-free ([2]; one adult with unmanageable morning seizures for fifteen years) of the same compound?
Answer: The time to seizure-free was “seizure-free in less than one month”.

Question: What about the “neuronal agitation on EEG” value ([2]; same adult, a few more months, all antiseizure medications removed) of the same compound?
Answer: The value was “no neuronal agitation measurable at EEG sensitivities”.

Question: What does the source list for `Cc1ncc2n1-c1ccc(Cl)cc1C(c1ccccc1F)=NC2` [Midazolam]?
Answer: EEG monitoring and Brainscans [3]: became normal; symptoms of seizures and agitated bioelectrical brain activity [3]: resolved; symptoms of seizures and bioelectrical brain activity after Neuroquiescence [3]: partial improvement; also recorded: resolved; termination of frequency of seizure and Grand mal seizure [4]: effective; absorption [5]: well absorbed; patients allergic in allergy test [6]: approximately 5%
